Data: the supplement of paper PMC6461962

What was measured:
[1] = test system: Rhodanobacter sp. FW104-10B01
Outline: (§1)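 Growth was read as OD600 at 24 h, or at 48 h for R2A strain comparisons, after washed cells at a final OD600 of 0.02 (80 µL) were added to 384-well plates holding serially diluted inorganic ion salts or equimolar nitrilotriacetic acid complexes. Aerobic plates were shaken at 700 rpm at 30 °C, but anaerobic plates were not. IC50 was calculated with the drc R package from at least two biological replicate curves, scaled between water and growth-blocking antibiotic controls and excluding wells with precipitate.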

[2] = test system: Pseudomonas fluorescens FW300-N2E2
Outline: as §1

[3] = medium / electron acceptor: 10B01 R2A/aerobic
[4] = medium / electron acceptor: 10B01 R2A/nitrate
[5] = medium / electron acceptor: N2E2 Glucose/aerobic
[6] = medium / electron acceptor: N2E2 Glucose/aerobic 0.25xMinerals
[7] = medium / electron acceptor: N2E2 Glucose/aerobic (2)
[8] = medium / electron acceptor: N2E2 KB/aerobic
[9] = medium / electron acceptor: N2E2 LB/aerobic
[10] = medium / electron acceptor: N2E2 LB/aerobic (2)
[11] = medium / electron acceptor: N2E2 LB/nitrate
[12] = medium / electron acceptor: N2E2 Lactate/aerobic
[13] = medium / electron acceptor: N2E2 R2A/aerobic

Row | Structure (SMILES) | IC50 growth inhibition [1, 3] [mM] | IC50 growth inhibition [1, 4] [mM] | IC50 growth inhibition [2, 5] [mM] | IC50 growth inhibition [2, 6] [mM] | IC50 growth inhibition [2, 7] [mM] | IC50 growth inhibition [2, 8] [mM] | IC50 growth inhibition [2, 9] [mM] | IC50 growth inhibition [2, 10] [mM] | IC50 growth inhibition [2, 11] [mM] | IC50 growth inhibition [2, 12] [mM] | IC50 growth inhibition [2, 13] [mM]
1 | CC(=O)[O-].[Tl+] [Thallium(I) acetate] | > 5 | 2.95 | < 0.00244 | < 0.00244 | < 0.00244 | < 0.00244 | < 0.00244 | < 0.00244 | < 0.00244 | < 0.00244 | < 0.00244
2 | [Cl-].[Cl-].[Zn+2] [Zinc chloride] | 1.77 | 4.5 | < 0.00244 | < 0.00244 | < 0.00244 | 2.72 | 2.62 | 2.55 | 0.58 | < 0.00244 | 0.0704
3 | O.O.O.O.O.O.O.O.O.O.O=S(=O)([O-])[O-].[Na+].[Na+] [Sodium sulfate] | 354 | 317 | 356 | > 500 | > 500 | > 500 | 455 | > 500 | 311 | 384 | 183
4 | [O-][Cl+2]([O-])O [Sodium Chlorate] | 355 | < 0.244 | 9.21 | 8.75 | 0.387 | 5.02 | 24.5 | 54.4 | 4.33 | 15.7 | 45.9
5 | O=C(O)C[C@H](NCCN[C@@H](CC(=O)O)C(=O)O)C(=O)O [Ethylenediamine-N,N'-disuccinic acid] | 1.76 | 2.76 | < 0.122 | < 0.122 | < 0.122 | < 0.122 | < 0.122 | < 0.122 | 0.488 | < 0.122 | < 0.122
6 | [Na+].[O]=[V](=[O])[O-] [Sodium metavanadate] | > 50 | > 50 | 0.0793 | 0.432 | 0.0997 | < 0.0244 | 3.26 | 13.4 | 6.94 | 2.34 | 8.62
7 | [Cl][Ag] [silver chloride] | > 0.5 | > 0.5 | 0.139 | > 0.5 | > 0.5 | > 0.5 | > 0.5 | > 0.5 | > 0.5 | 0.154 | > 0.5
8 | OP(O)(O)=S [Sodium thiophosphate tribasic hydrate] | > 50 | > 50 | > 50 | > 50 | > 50 | 42.2 | > 50 | 33.1 | 21 | > 50 | > 50
9 | Cl.N [Ammonium chloride] | > 500 | > 500 | 354 | 347 | 330 | 333 | 372 | 422 | 199 | 355 | > 500
